Experiment: Stability of each ingredient according to time and temperature (HPLC content)
Type: physicochemical
Set-up: content of ingredient: unit not given here
Conditions: for stability of ingredient content over time and temperature: summary in words of Table 3, FIGS. 6 to 8
Protocol: In order to compare the catechin contents of the fermented green tea extract, each sample was analyzed by WATERS 2695 HPLC manufactured by Alliance, and analyzed using an ODS (C18) column. […] Each numerical value in Table 1 indicates the wt % of the corresponding ingredient, based on the total weight ratio of the extract.

[1] = Week 16: 45° C./Normal pressure
[2] = Week 16: Room temperature/Normal pressure
[3] = Week 25: 45° C./Normal pressure
[4] = Week 25: Refrigerated/Normal pressure
[5] = Week 25: Room temperature/Normal pressure

Row | content of ingredient (Day 1 (Feb. 20, 2017)) | content of ingredient (Week 1 (Feb. 27, 2017)) | content of ingredient (Week 2 (Mar. 6, 2017)) | content of ingredient [1] | content of ingredient [2] | content of ingredient [3] | content of ingredient [4] | content of ingredient [5] | Compound | stability of ingredient content over time and temperature
1 | 7.48 | 7.70 | 7.53 | 7.72 | 7.79 | 6.61 | 7.19 | 6.19 | (−)-epigallocatechin gallate [EGCG] | rapidly decreased after a predetermined period
2 | 7.80 | 7.95 | 7.79 | 8.74 | 8.72 | 7.62 | 7.93 | 7.27 | O=C(O[C@@H]1Cc2c(O)cc(O)cc2O[C@H]1c1cc(O)c(O)c(O)c1)c1cc(O)c(O)c(O)c1 [GCG, (−)-gallocatechin gallate] | maintained relatively stably
3 | 2.12 | 2.12 | 2.19 | 2.50 | 2.84 | 2.28 | 2.61 | 2.06 | Oc1cc(O)c2c(c1)O[C@H](c1cc(O)c(O)c(O)c1)[C@H](O)C2 [EGC, epigallocatechin] | –
4 | 2.22 | 2.28 | 2.27 | 2.38 | 2.36 | 2.21 | 2.15 | 2.02 | epicatechin 3-O-gallate [ECG] | –
